Measured values taken from PMC11892739, “Site-specific molecular glues for the 14-3-3/Tau pS214 protein–protein interaction via reversible covalent imine tethering” (RSC Medicinal Chemistry, 2025).

molecular target: T1, 14-3-3ζ/Tau pS2 peptide (Homo sapiens, UniProt P63104); assay: Differential scanning fluorimetry of 14-3-3 with Tau pS2 peptide and compounds; assay type: binding; settings: compound 30-fold compared to 14-3-3ζ (75 μM), Tau pS2 peptide 25 μM, 14-3-3 2.5 μM; read-out: additional increase in melting temperature relative to the binary 14-3-3ζ/Tau pS2 peptide system
T1 construct: made in house; host or cells: NiCo21 (DE3) E. coli
T1 sequence (P63104 1-245): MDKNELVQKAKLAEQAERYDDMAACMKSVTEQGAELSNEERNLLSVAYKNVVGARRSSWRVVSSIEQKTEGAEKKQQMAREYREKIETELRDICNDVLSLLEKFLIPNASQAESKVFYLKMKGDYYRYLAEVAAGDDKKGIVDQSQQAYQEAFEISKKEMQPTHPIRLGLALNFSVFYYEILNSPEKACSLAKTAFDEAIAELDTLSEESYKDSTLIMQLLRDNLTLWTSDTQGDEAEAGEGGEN
Description: Fig. 3 a Dose–response fluorescence anisotropy data of compound titrations to 10 nM FITC-labeled Tau pS2 peptide and 100 nM 14-3-3ζ. […] Mean of three individually performed experiments (see ESI ^† Fig. S8 for the protein titrations). e Differential scanning fluorimetry assay results. Identified melting temperatures (Tm) of 14-3-3γ alone (2.5 μM) and in the presence of Tau pS2 peptide (25 μM) and additionally with selected compounds (75 μM).
As an orthogonal method to profile the PPI stabilizing activity of selected compounds, differential scanning fluorimetry (DSF) assays were performed (Fig. 3e). […] Upon addition of compounds (1, 11, 13–14, and 20–22) to this PPI complex (30-fold compared to 14-3-3ζ), an additional increase in melting temperature between 0.9 °C and 2.1 °C was observed relative to the binary 14-3-3ζ/Tau pS2 peptide system. These observations are in agreement with the stabilization observed in the FA data and strongly testify to the molecular glue effect of our compound, by enhancing the stability of the PPI complex. […]
chromatography (HisTrap high performance cartridges, Cytiva). Typically two 5 mL columns were used for a 2 L culture in which the lysate was loaded on the column, washed with 10 CV wash buffer (50 mM Hepes, pH 8.0, 300 mM NaCl, 25 mM imidazole, 2 mM βME), and eluted with several fractions (2-4 CV) of elution buffer (50 mM Hepes, pH 8.0, 300 mM NaCl, 250 mM imidazole, 2 mM βME). Fractions containing the 14-3-3 protein were combined and dialyzed into 25 mM HEPES pH 8.0, 200 mM NaCl, 10 mM MgCl2, 2 mM βME, followed by dialysis into 25 mM HEPES, 100 mM NaCl, 10 mM MgCl2, 500 μM TCEP (adjusted to pH 8.0). Dialyzed protein was concentrated to ∼40 mg/mL, analyzed by Q -Tof LC/MS, and aliquots were flash -frozen for storage at −80 °C. For 14 -3-3σ∆c, 1 mg TEV per 100 mg purified protein was added to the dialysis to remove the purification tag. The cleaved sample was then again loaded on a 10 mL Ni-NTA column to separate the cleaved product from the expression tag and residual uncleaved protein. The flowthrough was loade d on a Superdex 75 pg 16/60 size exclusion column (GE Life Sciences) using 25 mM HEPES, 100 mM NaCl, 10 mM MgCl2, 500 μM TCEP (adjusted to pH = 8.0) as running buffer. Fractions containing the 14 -3-3 protein were pooled and concentrated to ∼60 mg/mL, analyzed Q -Tof LC/MS, and aliquots were flash -frozen for storage at −80°C. […]
The peptide screen was performed in a similar way as the 14-3-3ζ titration in the precence of compound.
14-3-3ζ was titrated in a 2-fold dilution series (starting at 400 µM 14-3-3ζ) to 100 nM of fluorescein-labeled peptides and 250 µM compound 18 (1% DMSO) in FA buffer (10 mM HEPES pH 7.4, 150 mM […]
Data shown is the average of a scientific triplicate.
Differential Scanning Fluorimetry (DSF)
DSF was performed using 40 µl samples containing 2.5 µM 14 -3-3ζ, 25 µM Tau peptide (Tau pS2, Tau pS214 or Tau pS324), […] (1% DMSO) and 5x ProteoOrange (Lumiprobe, 5000x stock in DMSO) in 10 mM HEPES, 150 mM NaCl, 50 µM TCEP (pH 7.4). The samples were heated from 35 °C to 79°C at a rate of 0.3 °C per 15 s in a C FX96 Touch Real-Time PCR Detection System (Bio -Rad). Fluorescence intensity was determined using excitation ( λem=525/20 nm) and emission ( λex=570/20 nm) filters.
Based on these melting curves, the negative derivative melting curve is obtained from which the melting temperature Tm was determined. All described melting temperatures are based on two or three independent experiments, from which the average and standard deviations were determined.
X-ray crystallography data collection and refinement
For x-ray crystallography, a C-terminally truncated 14-3-3σ protein (truncated after T231 to reduce flexibility) was used. This 14-3-3σ∆C was preincubated with Tau pS214 in complexation buffer (20 mM HEPES pH 7.5, 2 mM MgCl2 and 100 μM TCEP) in a 1:1.5 molar stoichiometry (protein:peptide) at a final protein concentration of 10.0 mg/mL. […]

ΔTm, 0.9 to 2.1 °C:
O=Cc1ccc(-n2ccnc2-c2ccccc2)cc1Br [Compound 1]
O=Cc1ccc(-n2ccnc2-c2ccc(Cl)cc2)cc1Br [Compound 14]
O=Cc1ccc(-n2ccnc2-c2ccc(OC(F)(F)F)cc2)cc1Br [Compound 21]
Cc1ccc(-c2nccn2-c2ccc(C=O)c(Br)c2)cc1 [Compound 11]
O=Cc1ccc(-n2ccnc2-c2ccc(F)cc2)cc1Br [Compound 13]
O=Cc1ccc(-n2ccnc2-c2ccc(C(F)(F)F)cc2)cc1Br [Compound 20]
N#Cc1ccc(-c2nccn2-c2ccc(C=O)c(Br)c2)cc1 [Compound 22]
